Laboratory results reported in a compilation of properties of binary mixtures (doi:10.1021/acs.jced.0c00740).

Assay: xn = mol fraction of the nth substance listed
Details: 101 kPa

C[NH+](C)C.O=S(=O)([N-]S(=O)(=O)C(F)(F)F)C(F)(F)F + N#CCCCC#N
x1 = 0.2167
Details | viscosity [mPa·s]
278 K | 23
283 K | 18.87
293 K | 13.35
303 K | 9.89
308 K | 8.64
313 K | 7.609
323 K | 6.028
328 K | 5.417
333 K | 4.899
338 K | 4.457
343 K | 4.07
348 K | 3.741

C[S+](C)C.O=S(=O)([N-]S(=O)(=O)C(F)(F)F)C(F)(F)F + N#CCCCC#N
x1 = 0.2085
Details | viscosity [mPa·s]
283 K | 18.02
288 K | 15.07
293 K | 12.76
298 K | 10.92
308 K | 8.25
313 K | 7.26
323 K | 5.744
343 K | 3.871
353 K | 3.283
